Assay results reported in patent US20150225374A1, “4-INDAZOLYLAMINO-2-(2-(INDOL-3-YL)ETHYL)AMINOPYRIMIDINES USEFUL FOR THE TREATMENT OF CANCER” (NOVIGA RESEARCH AB, priority 2012, published 2015).

Legend:
A2780 = experiment: FMCA cytotoxicity, ovarian cancer cell line A2780; type: cell-based; details: Homo sapiens
Source text: (§1) The Fluorometric Microculture Cytotoxicity Assay, FMCA (Larsson, R., et al.; Anticancer Res, 1989, 9, 1111-1119), is a three day non-clonogenic microplate-based cell viability assay used for measurement of the cytotoxic and/or cytostatic effect of compounds in vitro (Lindhagen, E. et al.; Nat. Protoc., 2008, 3, 1364-1369). FMCA represents a valuable method to measure cytotoxicity in a number of cell types, both cell lines and primary cells from patients (Larsson, R., et al.; Int. J. Cancer, 1992, 50, 177-185; Fridborg, H., et al.; Eur. J. Cancer, 1999. 35, 424-432; Dhar, S., et al.; Br. J. Cancer, 1996, 74, 888-896).
(§2) FMCA is based on the principle that fluorescein diacetate (FDA) is converted to the fluorescent probe fluorescein by esterases […]. For experiments, 96-well microplates are prepared with compounds and stored at −20° C. or −70° C. until use. Cells are then seeded into the drug-prepared plates and placed in an incubator for 72 h. On the last day of incubation, the plates are washed and a buffer containing FDA is added and incubated with the cells for 45 minutes. Finally the fluorescence per well is measured in a fluorometer and a Survival Index % (SI) for each compound-treated well is calculated with the equation: Compound-treated cells minus blank divided by control cells minus blank. A high SI-value indicates a large percentage of living cells and vice versa.
(§3) To obtain EC50-values, plates were prepared with compounds serially diluted in culture media to suitable concentration ranges for each compound. Thereafter cells were added at a density of 10 000 cells per well and FMCA was performed after 72 h. Data analysis was performed using GraphPadPrism software, where SI values for each concentration were plotted on a log scale and processed with non-linear regression and a standard sigmoidal dose-response model.
(§4) The compounds of the invention were also tested on further cancer cell lines related to ovarian cancer (A2780; see e.g. Hamilton, T. et al.; Semin. Oncol., 1984, 11, 285-298) and multidrug-resistant ovarian cancer (A2780/Adr). The known microtubule interfering agents vincristine and paclitaxel were included as references in the resistant and non-resistant ovarian cancer cell lines.

A2780/Adr = experiment: FMCA cytotoxicity, multidrug-resistant ovarian cancer cell line A2780/Adr; type: cell-based
Source text: as §1, §2, §3, §4

bovine tubulin protein = experiment: Tubulin polymerization assay kit (Cytoskeleton Inc), fluorescence; type: biochemical; details: cell-free, example compounds at 1, 3 and 10 μM, controls at 3 μM, 60 mins, read-out: Inhibition of tubulin polymerization IC50
Method: Example compounds were further tested in a tubulin polymerization assay kit from Cytoskeleton Inc (Denver, Colo., USA). Polymerization is followed by fluorescence enhancement due to the incorporation of a fluorescent reporter into microtubules as polymerization occurs. Vincristine and paclitaxel at 3 μM were used as positive controls for tubulin polymerization inhibition and stabilisation, respectively. All compounds were dissolved in DMSO, which was used as solvent control. For experiments, example compounds (1, 3, and 10 μM) and control compounds (3 μM) were incubated with bovine tubulin protein in a cell-free environment and the fluorescence was then measured in a fluorometer (Fluostar Optima, BMG Labtech, Offenburg, Germany) at 360/450 nm every minute for a total of 60 mins.

[1] = system: CCRF-CEM cancer cells - leukemia; experiment: Fluorometric Microculture Cytotoxicity Assay (FMCA), CCRF-CEM; type: cell-based; details: Homo sapiens, 72 h, CCRF-CEM acute lymphoblastic leukemia cell line
Source text: as §1, §2
For experiments with compounds of the invention, 96-well plates were prepared as follows: Compounds were dissolved in DMSO to 10 mM and stored at −20° C. The test compounds were thawed, protected from light, mixed, and 3 μl stock solution was added to test tubes containing 297 μl culture medium RPMI-1640, to give the concentration 100 μM. Then, compounds were serially diluted to concentrations ten times higher than the desired test concentrations. Finally, 20 μl of each compound solution was added in duplicates to wells in two V-bottomed 96-well plates. The plates were stored at −20° C. until use.
On the day of cell seeding, 180 μl of cell suspension was added to each well in the two assay plates. The final concentrations of compounds tested were 10 μM, 1 μM, 0.1 μM and 0.01 μM. The experiment was performed twice.
In subsequent experiments, compounds were tested, along with a number of approved cancer drugs (dasatinib and pazopanib) as described above. The acute lymphoblastic leukemia cell line CCRF-CEM was used throughout. In the assay plates, medium was added to eight empty wells (blank wells) and wells filled with cell suspension served as control wells. SI-values were then calculated for each compound-treated well as described above. All experiments were conducted twice and a new batch of plates was prepared for each experiment.
as §3

[2] = system: colchicine site on tubulin (Porcine brain tubulin); experiment: Colchicine displacement assay, fluorometric detection; type: binding; details: 2 μM porcine brain tubulin, 2 μM colchicine, compound at 20 μM, 2 h; control = colchicine bound to tubulin
Method: To study whether the compounds bind to the colchicine site on tubulin, a colchicine displacement assay using fluorometric detection was performed as previously described (Bhattacharyya B. et al.; Proc Natl Acad Sci U S A 1974, 71:2627-31; Risinger A L. et al.; J Pharmacol Exp Ther 2011: 336:652-60). Porcine brain tubulin at 2 μM (Cytoskeleton) in a buffer consisting of 80 mM PIPES, 2 mM MgCl2, 0.5 mM EGTA at pH 7.0 with addition of 1 mM GTP, was incubated alone, with 2 μM colchicine or with 2 μM colchicine in the presence of test compounds or reference compound combretastatin A4 at 20 μM for 2 h in a black half-area 96-well plate (Corning Inc, Corning, N.Y., USA). Thereafter, the fluorescence was measured using a FLUOStar Optima (BMG Labtech) at an excitation of 380 nm and emission of 440 nm. The results are presented as percent of control i.e. colchicine bound to tubulin.

[3] = system: VEGF-induced cord formation; experiment: VEGF-driven vascular cord formation, stem cell co-culture model of angiogenesis (StemKit), neo-angiogenic setting; type: cell-based
Method: (§5) To study the vascular disrupting properties of one of the compounds, example 3, an evaluation of its inhibitory and disruptive effects on VEGF-driven vascular cord formation in an in vitro stem cell co-culture model of angiogenesis (StemKit, Essen Bioscience) was carried out.

established vessels = experiment: Stem cell co-culture model of angiogenesis (StemKit), established vessels; type: cell-based; details: doses from 3 nM up to 100 nM, example 3 and combretastatin A4 had equal potency
Method: as §5

| SMILES | IC50 (bovine tubulin protein) [µM] | Colchicine-tubulin binding Percent of control [2] | EC50 (A2780) [µM] | EC50 (A2780/Adr) [µM] | EC50 [1] [µM] | threshold concentration of inhibitory effect on VEGF-induced cord formation ([3]; tested from 0.78 nM and upwards, dose dependent inhibitory effect) [nM] | disruption of established blood vessels (established vessels) | inhibition of VEGF-induced cord formation ([3]; from the lowest tested dose 4.6 nM up to 10 μM) [%] |
| --- | --- | --- | --- | --- | --- | --- | --- | --- |
| CCOc1ccc2[nH]cc(CCNc3nccc(Nc4ccc5c(C)n(C)nc5c4)n3)c2c1 [Example 5, N^4-(2,3-dimethyl-2H-indazol-6-yl)-N^2-[2-(5-ethoxy-1H-indol-3-yl)ethyl]pyrimidine-2,4-diamine] |  |  | 0.0085 | 0.15 | 0.0055 |  |  |  |
| COc1ccc(/C=C\c2cc(OC)c(OC)c(OC)c2)cc1O [Combretastatin A4, combretastatin A4, reference compound] |  | 66% of control |  |  |  | 1.6 | concentration dependent disruption of blood vessels |  |
| CC(=O)O[C@H]1C(=O)[C@@]2(C)[C@H]([C@H](OC(=O)c3ccccc3)[C@]3(O)C[C@H](OC(=O)[C@H](O)[C@@H](NC(=O)c4ccccc4)c4ccccc4)C(C)=C1C3(C)C)[C@]1(OC(C)=O)CO[C@@H]1C[C@@H]2O [Paclitaxel, paclitaxel, reference compound] |  |  | 0.00026 | 0.81 |  |  |  |  |
| Cc1nc(Nc2ncc(C(=O)Nc3c(C)cccc3Cl)s2)cc(N2CCN(CCO)CC2)n1 [Ref. 1, dasatinib, reference compound] |  |  |  |  | 9.7 |  |  |  |
| CCOc1ccc2[nH]cc(CCNc3nccc(Nc4cccc5c4cnn5C)n3)c2c1 [Example 1] | 1 to 3 | 68% of control | 0.0004 | 0.0036 | 0.0019 |  |  |  |
| COc1ccc2[nH]cc(CCNc3nccc(Nc4ccc5cn(C)nc5c4)n3)c2c1 [Example 2, N^2-[2-(5-methoxy-1H-indol-3-yl)ethyl]-N^4-(2-methyl-2H-indazol-6-yl)pyrimidine-2,4-diamine] |  | 77% of control | 0.0093 | 0.034 | 0.0051 |  |  |  |
| Cc1ccc(Nc2nccc(N(C)c3ccc4c(C)n(C)nc4c3)n2)cc1S(N)(=O)=O [Ref. 2, pazopanib, reference compound] |  |  |  |  | 25.9 |  |  |  |

Second part, led by results:

| IC50 (bovine tubulin protein) [µM] | Colchicine-tubulin binding Percent of control [2] | SMILES | EC50 (A2780) [µM] | EC50 (A2780/Adr) [µM] | EC50 [1] [µM] | threshold concentration of inhibitory effect on VEGF-induced cord formation ([3]; tested from 0.78 nM and upwards, dose dependent inhibitory effect) [nM] | disruption of established blood vessels (established vessels) | inhibition of VEGF-induced cord formation ([3]; from the lowest tested dose 4.6 nM up to 10 μM) [%] |
| --- | --- | --- | --- | --- | --- | --- | --- | --- |
| < 3 |  | CC[C@]1(O)C[C@H]2CN(CCc3c([nH]c4ccccc34)[C@@](C(=O)OC)(c3cc4c(cc3OC)N(C=O)[C@H]3[C@@](O)(C(=O)OC)[C@H](OC(C)=O)[C@]5(CC)C=CCN6CC[C@]43[C@@H]65)C2)C1 [Vincristine, vincristine, reference compound] | 0.00022 | 0.21 |  |  |  |  |
| ~3 | 94% of control | COc1ccc2[nH]cc(CCNc3nccc(Nc4ccc5c(C)n(C)nc5c4)n3)c2c1 [Example 4, N^4-(2,3-dimethyl-2H-indazol-6-yl)-N^2-[2-(5-methoxy-1H-indo1-3-yl)ethyl]pyrimidine-2,4-diamine] | 0.034 | 0.37 | 0.011 |  |  |  |
| 3 to 10 | 99% of control | CCOc1ccc2[nH]cc(CCNc3nc(C)cc(Nc4ccc5c(C)n(C)nc5c4)n3)c2c1 [Example 6, N^4-(2,3-dimethylindazol-6-yl)-N^2-[2-(5-ethoxy-1H-indol-3-yl)ethyl]-6-methyl-pyrimidine-2,4-diamine] | 0.047 | 0.39 | 0.034 |  |  |  |
|  | 64% of control | COc1ccc2[nH]cc(CCNc3nccc(Nc4cccc5c4cnn5C)n3)c2c1 [Example 7, N^2-[2-(5-methoxy-1H-indol-3-yl)ethyl]-N^4-(1-methylindazol-4-yl)pyrimidine-2,4-diamine] | 0.0029 | 0.013 | 0.0051 |  |  |  |
| ~3 | 68% of control | CCOc1ccc2[nH]cc(CCNc3nccc(Nc4ccc5cn(C)nc5c4)n3)c2c1 [Example 3, N^2-[2-(5-ethoxy-1H-indol-3-yl)ethyl]-N^4-(2-methyl-2H-indazol-6-yl)pyrimidine-2,4-diamine] | 0.00072 | 0.016 | 0.0053 |  | concentration dependent disruption of blood vessels | 100 |
